Literature values in US20180326089A1, “PROTEIN NANOSTRUCTURE BASED DRUG DELIVERY SYSTEM FOR THE DELIVERY OF THERAPEUTIC AGENTS TO THE ANTERIOR SEGMENT OF THE EYE” (Council of Scientific & Industrial Research, priority 2015, published 2018).

- water solubility: poorly water soluble
Compound: CC(=O)N1CCN(c2ccc(OCC3COC(Cn4ccnc4)(c4ccc(Cl)cc4Cl)O3)cc2)CC1 (stereo not shown) [Ketoconazole]
